# Data as given in patent publication US20110251144A1, “MOLECULAR MODULATORS OF THE WNT/BETA-CATENIN PATHWAY” (MASSACHUSETTS INSTITUTE OF TECHNOLOGY, priority 2008, published 2011).
# Entries after “also recorded” stand apart in the source; their conditions may differ. Read-outs that look alike come from different tables or passages of the source.
# Legend:
# [1] = Suitability for murine therapeutic trials (toxicity, serum levels); assay type: in vivo; settings: mice
# nuclear β-catenin = assay: Immunofluorescent staining of β-catenin in B16 cells; assay type: cell-based, murine; settings: 10 mM lithium chloride or BIO, versus sodium chloride or DMSO
# Protocol: A polyclonal rabbit anti-β-catenin antibody was used for detection of β-catenin (1:1000 dilution for immunoblot, 1:200 dilution for immunohistochemistry). Cells were grown on 18 mm glass coverslips, for 48-72 hours, fixed using 4% paraformaldahyde, permeabilized using 0.25% Triton X-100, and then blocked with 10% goat serum. Goat anti-rabbit Alexa Fluor-568 antibody (Molecular Probes; Eugene, Oreg.) was diluted 1:1000. Cells were counterstained for nucleic acid with DAPI (Molecular Probes; Eugene, Oreg.). Paraffin-embedded nevus sections were stained using an antibody dilution of 1:200. Cellular lysates were obtained by lysing cells on plate with a 0.1% NP-40 based buffer and analyzed by NuPage 4-12% gradient gels (Invitrogen; Grand Island, N.Y.). The WNT5A antibody was obtained from Cell Signaling Technologies (Danvers, Mass.).
# [2] = system: Axin2, Si/Gp100, Kit and other melanocytic genes; assay: Quantitative PCR of endogenous gene targets in B16 melanoma cells; assay type: cell-based, murine
# Protocol: Cells were cultured for approximately 72 hours until they reached 80-90% confluency. RNA was purified using the RNeasy kit using the manufacturer's protocol (Qiagen; Maryland, MD). cDNA was synthesized using Superscript Reverse Transcriptase (Invitrogen; Grand Island, N.Y.). […] Quantitative PCR results presented in the manuscript are representative of experiments performed on a minimum of three biologic replicates.
# B16 cells [3] = assay: Proliferation of B16 cells by MTT assay; assay type: cell-based, murine
# [4] = system: Wnt/β-catenin signaling (beta-catenin activated reporter, BAR); assay: High throughput small molecule screen, beta-catenin activated reporter (BAR) in HT22 cells; assay type: cell-based, mouse
# Protocol: Compounds were dissolved in dimethylsulphoxide (DMSO). For the primary screen, performed in duplicate, HT22 cells stably expressing the beta-catenin activated reporter (BAR) were cultured in growth medium (DMEM/10% FBS/1% antibiotic). 3000 cells per well were transferred to 384-well clear bottom plates (Nalgene Nunc; Rochester, N.Y.) in 30 μL of growth medium. The following day, […] of compound and 10 μL of either growth media or WNT3A conditioned media (E.C.50 dose) was transferred to the cells. The next day each well was imaged using transmitted light with the ImageXpress Micro (Molecular devices; Sunnyvale, Calif.) followed by the addition of 10 μL of Steady-Glo (Promega; Madison, Wis.) as per the manufacture's instructions, and luminescence measurement on an EnVision Multilabel plate reader (PerkinElmer; Waltham, Mass.). Viability was scored by analyzing the ImageXpress images. As described in detail in Seiler et al. (Seiler et al., Nucleic Acids Res. 36:D351 (2008), which is hereby incorporated by reference in its entirety), each compound well received an algebraically signed Z-score corresponding to the number of standard deviations it fell above or below the mean of a well-defined mock-treatment distribution of DMSO controls. Z-score normalized data from the growth media stimulus group were sorted by average percent change. The fold-increase over the background of DMSO controls for each treatment was also calculated. Top compounds with the greatest percent change of activity with the growth media were then resorted based on the percent change with the WNT3A stimulus.
# These compounds represent FDA approved compounds and drugs or known bioactive molecules. RKO (human colorectal carcinoma red line) and HT22 (mouse hyppocampal line) cell lines were screened. The lines were tested without a stimulus, in presence of an E.C.50 dose of Wnt 3A condition media and in presence of a subthreshold dose of LiCl.
# [5] = system: Wnt/β-catenin signaling (beta-catenin activated reporter, BAR); assay: High throughput small molecule screen, Wnt/β-catenin reporter in RKO cells; assay type: cell-based, human
# Axin2 promoter = assay: Secondary screen, firefly luciferase under the Axin2 promoter in HEK293T cells; assay type: cell-based; settings: alone and with WNT3A conditioned media
# B16 melanoma cells = assay: B16 footpad tumor inoculation, tumor size and metastasis in C57BL/6 mice; assay type: in vivo
# Protocol: Footpad injections of transduced B16 melanoma cells and measurement of popliteal lymph node and lung metastasis was performed as previously described (Murakami et al., Cancer Res. 62:7328 (2002), which is hereby incorporated by reference in its entirety). […] Fumagalli et al., Exp. Neurol. 198:114 (2006), which are hereby incorporated by reference in their entirety). […] All animal studies were performed using IACUC protocols approved by institutional review boards.
# B16 cells [6] = assay: Pigmentation of cultured B16 cells; assay type: cell-based, murine; settings: B16 cells treated for 2 passages, 10 μM
# [7] = system: human melanoma xenografts; settings: mouse model, Namkoong et al. 2007; cited from earlier work
# [8] = 10 mM lithium chloride or 1 μM BIO
# [9] = HT22 cells, in presence of a subthreshold dose of LiCl
# [10] = HT22 cells, in presence of an E.C.50 dose of Wnt 3A condition media
# [11] = RKO cells, in presence of a subthreshold dose of LiCl
# [12] = RKO cells, in presence of an E.C.50 dose of Wnt 3A condition media
Compound,HT22 Li [4],HT22 Wnt3a [4],RKO Li [5],RKO Wnt3a [5],"HT22 Li [4, 9]","HT22 Wnt3a [4, 10]","RKO Li [5, 11]","RKO Wnt3a [5, 12]",further results
"O=C1Nc2cc(Br)ccc2/C1=C1/Nc2ccccc2/C1=N\O [BIO, 6-bromoindirubin-3′-oxime]",,,,,,,,,"Obstacles to murine therapeutic trials [1]: several obstacles relating to both toxicity; Nuclear β-catenin by immunofluorescent staining (nuclear β-catenin): increased nuclear β-catenin; Axin2 levels by quantitative PCR [2, 8]: increased Axin2 levels; Proliferation by MTT assay (B16 cells [3]; [8]): decreased proliferation"
"Cl.Cl.FC(F)(F)c1ccc2c(c1)N(CCCN1CCN(CCCl)CC1)c1ccccc1S2 [Fluphenazine-N-2-chloroethane, Dihydrochloride]",1.32,0.13,4.27,0.08,,,,,
Cc1[nH]c(=O)c(C#N)cc1-c1ccncc1 [milrinone],0.98,1.75,1.00,1.20,,,,,
Nc1nc2ccc(OC(F)(F)F)cc2s1 [riluzole],,,,,,,,,"Activation of firefly luciferase under the Axin2 promoter (Axin2 promoter): both on its own as well as in synergy with WNT3A conditioned media; Sentinel popliteal lymph node metastasis (Firefly luciferase) (B16 melanoma cells; 9 mice per group, versus control mice with no treatment): significantly decreased metastasis; Tumor size (B16 melanoma cells; after 21 days, treatment initiated one week post-injection, oral in drinking water): No significant difference; Lung metastasis, mice affected (B16 melanoma cells; versus 3 out of 9 control mice): 0 out of 9; Pigmentation (B16 cells [6]): increased pigmentation; Proliferation / growth of human melanoma xenografts [7]: could decrease proliferation of human melanoma xenografts; Expression of melanocytic genes ([2]; 72 hours, 10 mM lithium chloride or 10 μM riluzole): elevation in levels of melastatin (Trpm1) and Kit transcripts; also recorded: upregulation of melanocytic genes; Proliferation by MTT assay (B16 cells [3]; three days, 10 μM riluzole): decreased proliferation"
CCCCCCCCCCCCCCCCCC(=O)O[C@H](CC(=O)[O-])C[N+](C)(C)C [stearoylcarnitine],,,,,3.21,0.38,0.92,0.10,
azathioprine,,,,,0.76,2.67,1.06,1.30,
